Experiment [1] relates to Human immunodeficiency virus 1. Kind of experiment: Antiviral activity against HIV-1 IIIb infected in human MT2 cells assessed as reduction in virus induced cytopathic effect and measured after 5 days by XTT assay. The format is functional, organism-based. To be noted: Human immunodeficiency virus 1, IIIb, MT2, 120 h.
Experiment [2] can be described thus: Inhibition of TNF-alpha release in LPS stimulated human PBMC. Type of experiment: functional, cell-based.
Experiment [3] has as its system SARS-CoV. Kind of experiment: Antiviral activity against SARS 2019-nCoV infected in African green monkey Vero E6 cells assessed as inhibition of viral infection preincubated and measured after 48 hrs by qRT-PCR analysis. Type of experiment: functional. To be noted: Severe acute respiratory syndrome-related coronavirus, Vero C1008. A general note: In qPCR the cycle at which signal appears reflects the starting amount.

In general, EC50 refers to the concentration giving half of the maximal effect. Take `C[C@H](Cn1cnc2c(N)ncnc21)OCP(=O)(O)N[C@H](C)C(=O)O`: the EC50 in experiment [1] was 10 µM.

As usually defined, the IC50 is the concentration that gives 50% inhibition. As for `Nc1cccc2c1CN(C1CCC(=O)NC1=O)C2=O` (centres undefined) [LENALIDOMIDE], the IC50 in experiment [2] is 0.1 µM.

The term EC90 denotes the concentration at which the effect reaches the 90% level. For `CCC(CC)COC(=O)[C@H](C)N[P@](=O)(OC[C@H]1O[C@@](C#N)(c2ccc3c(N)ncnn23)[C@H](O)[C@@H]1O)Oc1ccccc1` [REMDESIVIR], the EC90 in experiment [3] came to 1.76 µM.

As for `C[C@H](Cn1cnc2c(N)ncnc21)OCP(=O)(O)O` [TENOFOVIR ANHYDROUS], the EC50 in experiment [1] was found to be 5 µM.

The values are drawn from ChEMBL document CHEMBL5214899, “Tailor-made amino acids in the design of small-molecule blockbuster drugs” (Eur J Med Chem, 2021).
